# Test results reported in US8129184B2, “Cancer stem cell antigen vaccines and methods” (Cedars-Sinai Medical Center, priority 2006, dated 2012).
# Entries after “also recorded” stand apart in the source; their conditions may differ.
# Experiments:
# [1] = test system: CD133 positive cells isolated from No. 66; experiment: WST-1 Cell Proliferation Assay, drug sensitivity of CD133 positive vs CD133 negative cells, No. 66; format: cell-based, human; details: No. 66, 48 hours, 10% FBS/F-12/DMEM
# Experimental: FIGS. 10A-10D are line graphs depicting drug sensitivity of CD133 positive cancer stem cells derived from patient No. 66. Tumor cells of No. 66 were cultured in FBS/F-12/DMEM medium for 4 passages. Both CD133 positive and negative tumor cells were collected by FACS sorting. 1×10^4 cells/well were plated in 96-well plate and treated with the indicated concentrations of VP-16, Taxol, temozolomide, and carboplatin for 48 hours in FBS/F-12/DMEM medium. * indicates p<0.05 compared to autologous CD133 negative cells. Data are representative of two independent experiments. (10A) VP16; (10B) Taxol; (10C) temozolomide; (10D) carboplatin.
# (§1) To determine whether CD133 positive cancer stem cells were resistant to chemotherapeutic agents, the WST-1 Cell Proliferation Assay was used to examine the drug sensitivity of CD133 positive cells and CD133 negative cells (both collected by FACS sorting from the three glioblastoma patients' primary cultured tumor cells as described above). CD133 positive and negative cells were exposed to conventional chemotherapeutic agents, temozolomide, carboplatin, VP-16 or taxol at various concentrations, for up to 48 hours in 10% FBS/F-12/DMEM culture medium. Temozolomide was supplied by the Schering-Plough Research Institute (Kenilworth, N.J.) and was dissolved in DMSO (Sigma Chemical Co., St Louis, Mo.) at 100 mM stock solution. Carboplatin, etoposide (VP-16) and paclitaxel (Taxol) were obtained from Sigma-Aldrich (St. Louis, Mo.).
# [2] = test system: 9L sphere and monolayer cells; experiment: WST-1 viability of 9L neurospheres and monolayer cells exposed to chemotherapeutic agents; format: cell-based, rat; details: 125-1,000 μM, 2 days
# Experimental: To compare the differential proliferation rates and resistance to chemotherapeutic agents, 2,000 healthy 9L sphere and monolayer cells were exposed to either Dulbecco's modified Eagle's medium/F-12 medium containing 10% fetal bovine serum (FBS), or […] stock solution of Temozolamide or Carboplatin dissolved in PBS at concentrations of 1,000 μM, 500 μM, 250 μM, and 125 μM for 2 days. The viability of the cells was scored by measurement of the absorption of formazan dye (the amount of formazan dye formed directly correlates to the number of metabolically active cells) using the cellular proliferation assay WST-1 (Roche Molecular Biochemicals, Mannheim, Germany). Formazan was measured with the use of a microplate reader (Tecan) and spectrophotometer set at a wavelength of 440 nm and a reference wavelength of 890 nm. Cellular viability was determined by exposing cells to WST-1 for 4 hours, and calculating the percentage of viable cells. Proliferation was also assessed by using manual cell counting after 7 days in culture, with an initial cellular concentration of 100,000 cells/mL in a […] flask.
# [3] = test system: CD133 positive cells isolated from No. 377; experiment: WST-1 Cell Proliferation Assay, drug sensitivity of CD133 positive vs CD133 negative cells, No. 377; format: cell-based, human; details: 48 hours
# Experimental: (§2) FIGS. 11A-11C are a set of line graphs depicting drug sensitivity of CD133 positive cancer stem cells derived from patient Nos. 377 and 1049. Tumor cells of patient No. 377 and No. 1049 were cultured in FBS/F-12/DMEM medium for 3 passages. Both CD133 positive and negative tumor cells were collected by FACS sorting. 1×10^4 cells/well were plated in 96-well plate and treated with the indicated concentrations of carboplatin (11A and 11C) or VP-16 (11B) for 48 hours in FBS/F-12/DMAEM medium. * indicates p<0.05 compared to autologous CD133 negative cells. Data are representative of two independent experiments.
# as §1, with “Carboplatin, etoposide (VP-16) and paclitaxel (Taxol) were obtained from Sigma-Aldrich (St. Louis, Mo.).” left out
# [4] = test system: CD133 positive cells isolated from No. 1049; experiment: WST-1 Cell Proliferation Assay, drug sensitivity of CD133 positive vs CD133 negative cells, No. 1049; format: cell-based, human; details: No. 1049, at 200 μM, 48 hours
# Experimental: as §2
# as §1, with “Carboplatin, etoposide (VP-16) and paclitaxel (Taxol) were obtained from Sigma-Aldrich (St. Louis, Mo.).” left out
compound,measurement,setting,value
"CC(=O)O[C@H]1C(=O)[C@@]2(C)[C@H]([C@H](OC(=O)c3ccccc3)[C@]3(O)C[C@H](OC(=O)[C@H](O)[C@@H](NC(=O)c4ccccc4)c4ccccc4)C(C)=C1C3(C)C)[C@]1(OC(C)=O)CO[C@@H]1C[C@@H]2O [Taxol, paclitaxel]",drug resistance of CD133 positive cells compared to autologous CD133 negative cells,[1],dramatic drug resistance
N.N.O=C([O-])C1(C(=O)[O-])CCC1.[Pt+2] [carboplatin],resistance of neurospheres to the agent compared to monolayer cells,[2],significantly (P<0.05) greater resistance; also recorded: significantly more resistant
same,drug resistance of CD133 positive cells compared to autologous CD133 negative cells,[1],dramatic drug resistance
same,resistance of CD133 positive cells compared to autologous CD133 negative cells,"[3]; No. 377, all concentrations tested",significant resistance
same,resistance of CD133 positive cells compared to autologous CD133 negative cells,[4],significant resistance
"COc1cc([C@@H]2c3cc4c(cc3[C@@H](O[C@@H]3O[C@@H]5CO[C@@H](C)O[C@H]5[C@H](O)[C@H]3O)[C@H]3COC(=O)[C@H]23)OCO4)cc(OC)c1O [VP-16, etoposide]",drug resistance of CD133 positive cells compared to autologous CD133 negative cells,[1],dramatic drug resistance
same,resistance of CD133 positive cells compared to autologous CD133 negative cells,"[3]; No. 377, at 200 μM",significant resistance
